Legend:
[1] = biological target: T1, N-acylethanolamine acid amidase (NAAA) (Rattus norvegicus, UniProt Q5KTC7); assay: LC/MS enzyme activity assay in HEK-rNAAA cell preparations; type: biochemical
T1 sequence (Q5KTC7 34-130): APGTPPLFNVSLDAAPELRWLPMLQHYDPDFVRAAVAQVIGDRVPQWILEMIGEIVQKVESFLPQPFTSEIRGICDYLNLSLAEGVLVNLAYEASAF
T1 sequence (Q5KTC7 131-362): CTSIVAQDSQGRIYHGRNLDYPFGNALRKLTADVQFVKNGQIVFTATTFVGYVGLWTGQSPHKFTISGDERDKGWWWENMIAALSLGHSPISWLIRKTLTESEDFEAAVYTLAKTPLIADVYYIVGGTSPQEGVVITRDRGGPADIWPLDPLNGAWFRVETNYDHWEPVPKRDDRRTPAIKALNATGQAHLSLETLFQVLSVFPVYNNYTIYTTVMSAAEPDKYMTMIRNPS

[2] = substrate: CCCCCC/C=C\CCCCCCCCC(=O)NCCO; assay: Michaelis-Menten analysis by LC/MS of heptadecenoic acid formation; type: biochemical, Rattus norvegicus

Molecule: C[C@@H]1OC(=O)[C@@H]1NC(=O)OCCCCCc1ccccc1 [ARN077, 5-phenylpentyl N-[(2S,3R)-2-methyl-4-oxo-oxetan-3-yl] carbamate]
- IC50 [1]: 11 nM

B1: N-acylethanolamine acid amidase (NAAA) (Rattus norvegicus) (protein)
chain 1: T1 sequence (Q5KTC7 34-130)
chain 2: T1 sequence (Q5KTC7 131-362)
- Vmax [2]: 0.0154 µmol/min/mg

From paper PMC3723234 (Pain, 2012)
